Reference: ChEMBL document CHEMBL3046101, “Synthesis and Biological Activity of 1,2-Dithiolanes and 1,2-Dithianes Bearing a Nitrogen-containing Substituent” (1992)

Assays:
Format in all cases: functional
[1] = system: Chilo suppressalis; experiment: Insecticidal activity against Chilo suppressalis (rice stem borer) assessed as mortality compound administered as topical application
[2] = system: Spodoptera litura; experiment: Insecticidal activity against Spodoptera litura assessed as mortality at 500 ppm
[3] = system: Tetranychus urticae; experiment: Acaricidal activity against Tetranychus urticae (two-spotted spider mite) assessed as mortality at 500 ppm
[4] = system: Culex pipiens molestus; experiment: Insecticidal activity against Culex pipiens molestus assessed as mortality at 5 ppm
[5] = system: Nilaparvata lugens; experiment: Insecticidal activity against Nilaparvata lugens (brown planthopper) assessed as mortality at 50 ppm
[6] = system: Chilo suppressalis; experiment: Insecticidal activity against Chilo suppressalis (rice stem borer) assessed as mortality at 50 ug/g administered as topical application
[7] = system: Tetranychus urticae; experiment: Acaricidal activity against Tetranychus urticae (two-spotted spider mite) assessed as mortality

Compound | LD50 [1] | mortality at 500 ppm [2] | mortality at 500 ppm [3] | mortality at 5 ppm [4] | mortality at 50 ppm [5] | mortality [6] | LC50 [7]
CN(C)CC1CCSS1.O=C(O)C(=O)O (stereo not drawn) | 4.3 mg/kg | 30% | 100% | 100% | 80% | 100% | –
CN(C)CC1CSSC1.O=C(O)C(=O)O | – | 90% | 100% | 100% | 100% | 100% | 88 µg/mL
CN(C)CC1CCCSS1.O=C(O)C(=O)O (stereo not drawn) | – | 0% | 20% | 0% | 50% | 0% | –
CN(C)C[C@H]1C[C@@H](CN(C)C)SS1.O=C(O)C(=O)O | – | 30% | 100% | 0% | 5% | 0% | 20 µg/mL
CN(C)CC1CCC(CN(C)C)SS1.O=C(O)C(=O)O (stereo not drawn) | – | 0% | 100% | 0% | 0% | 0% | –
O=C(O)C(=O)O.O=[N+]([O-])c1cccc2c1SSC2 | – | 30% | 100% | 95% | 80% | 10% | –
CC(C)C1CSSC1 | – | 20% | 50% | 0% | 0% | 20% | –
CN(C)CCC1CCSS1.O=C(O)C(=O)O (stereo not drawn) | 23.2 mg/kg | 0% | 100% | 100% | 20% | 100% | 126 µg/mL
CN(C)CCC1CSSC1.O=C(O)C(=O)O | 28.1 mg/kg | 40% | 100% | 95% | 100% | 100% | –
CN(C)CCCC1CSSC1.O=C(O)C(=O)O | – | 0% | 100% | 40% | 10% | 60% | –
CN(C)CCCCC1CSSC1.O=C(O)C(=O)O | – | 0% | 100% | 75% | 20% | 0% | –
CC1CC(CN(C)C)SS1.O=C(O)C(=O)O (stereo not drawn) | – | 20% | 100% | 0% | 95% | 80% | –
CC1CSSC1CN(C)C.O=C(O)C(=O)O (stereo not drawn) | 50 mg/kg | 0% | 100% | 0% | 75% | 80% | 209 µg/mL
CN(C)CC1(C)CSSC1.O=C(O)C(=O)O | – | 40% | 90% | 100% | 100% | 70% | –
O=C(O)C(=O)O.c1ccc(C2CSSC2)nc1 | – | 0% | 100% | 100% | 70% | 10% | –
CN1CCCCC1C1CSSC1.O=C(O)C(=O)O (stereo not drawn) | – | 10% | 100% | 95% | 100% | 70% | –
CN(C)NC1CSSC1.O=C(O)C(=O)O | 36.2 mg/kg | 0% | 100% | 25% | 45% | 100% | –
CN(C)N(C)C1CSSC1.O=C(O)C(=O)O | 15 mg/kg | 0% | 100% | 100% | 60% | 100% | –
CN(C)C[C@H]1C[C@H](CN(C)C)SS1.O=C(O)C(=O)O (relative stereo) | – | 0% | 90% | 0% | 20% | 0% | 116 µg/mL
CN(C)C1CSSC1.O=C(O)C(=O)O [NEREISTOXIN HYDROGEN OXALATE] | 1.7 mg/kg | 30% | 50% | 100% | 100% | 100% | 603 µg/mL
